US11541063B2, “Compositions and products for use in the treatment of bone fractures and defects” (priority 2014, dated 2023)
Like-named read-outs stand apart in the source and are kept apart here.

Tested on: MC3T3-E1 cells
Settings: alendronate only (0 nM Stanolone), MC3T3 cells stimulated for 10 days
Method: MC3T3-E1 (ECACC, Acc. No. 99072810) were cultured in α-MEM (Invitrogen, Carlsbad, Calif.) supplemented with 100 U/ml penicillin, 100 ug/ml streptomycin (Invitrogen, Carlsbad, Calif.) and 5% fetal bovine serum (Hyclone, GE Healthcare). Cells were grown under standard conditions (37° C., 5% CO2 and 95% humidity). MC3T3-E1 cells were seeded at a density of 26000 cells/cm2 and seeding of the cells was considered as the day 0 timepoint. On day 1 post-plating, the medium of the MC3T3-E1 cells was replaced with osteogenic medium (the above-mentioned media supplemented with 50 μg/ml Ascorbic Acid (Sigma)), 10 nM β-glycerol phosphate (Sigma) and on day 3 post-plating, hormones or vehicle (0.1% ethanol) were added.
Cells were lysed for 10 minutes with lysisbuffer (100 mM Potassium phosphate, 0.2% Triton X-100, pH 7.8 containing protease inhibitor cocktail (Roche)). […] The luminescence (1 second) was measured with a Filtermax F5 (Molecular Devices).
The acidic phosphatase activity of the cells was determined by adding freshly prepared p-NPP buffer (4-nitrophenyl phosphate (Sigma) in 0.1 M NaAc+0.1% Triton X-100, pH5.5) to the cell lysates and incubated for 1.5 hrs at 37° C. and 5% CO2. […] The absorbance was measured at 405 nm with a Filtermax F5 (Molecular Devices). […]

NCCCC(O)(P(=O)(O)O)P(=O)(O)O [alendronate]
ALP/AP activity (50 μM): decreases
ALP/AP activity (2 and 10 μM): small increase
